We go through seven compounds from patent publication US7943568B2, “Antitumor agents” (The Ohio State University Research Foundation, priority 2005, dated 2011).

Entries after “also recorded” stand apart in the source; their conditions may differ. Where a name gives a salt, the structure may show the parent alone. Read-outs that look alike come from different tables or passages of the source.

For one series, the system named is T1, HDAC.
T1 construct: other: n=3; other: relative to FK228
It counts as biochemical. Particulars: for IC50: n=3, read-out: IC50, HDAC inhibitory activity; for times more potent as HDAC inhibitors than FK228: relative to FK228. As to the method:
To the plasma was added 2 mL acetonitrile to precipitate the proteins. After centrifugation, the acetonitrile layer was transferred to a clean Falcon polypropylene tube and evaporated to dryness under a stream of nitrogen. […] Their HDAC inhibitory activities were assayed by using the Fluor de Lys HDAC Fluorescent Activity Assay/Drug Discovery Kit (BioMol, Plymouth Meeting, Pa.).

Series [1] is described as follows: Distribution of FK228 and metabolites between plasma and RBC after rat whole blood incubation. Particulars: for detection in RBC cytosol / homogenate / detection in plasma fraction: FK228 100 μg/mL, rat whole blood, 37° C., 60 min. It counts as in vitro ADME, rat. How it is done: After centrifugation, the plasma was removed and the RBC fraction was washed 8 times with 2 mL saline each. […] The RBC debris was further washed with 1 mL acetonitrile each 8 times.
The blood was centrifuged to remove plasma. To the RBC fraction was added blank rat plasma to restore the initial volume, and the mixture was homogenized by a glass tissue grinder (400 strokes). The plasma and RBC homogenates were analyzed by ESI ion-trap LC-MS. A Waters Spherisorb S3 ODS1 column (2 mm ID×10 cm, particle 5 μm, Waters Corporation, Milford, Mass., USA) with a gradient elution was used. The gradient was initiated with 25% acetonitrile in 0.1% acetic acid for 5 minutes, followed by a linear increase to 70% acetonitrile over 5 minutes, which was kept constant for 15 minutes. The mobile phase was then returned linearly to the original condition over 3 minutes, which was then maintained for 7 minutes. The cycle time for each analysis was 35 minutes.

Series [2] can be described thus: Formation kinetics of FK228 metabolites in rat plasma containing 10 mM GSH. The class given is in vitro ADME. The note with it: for half-life at 100 μg/mL: rat, plasma; for time to plateau or maximum concentration: FK228 100 μg/mL, 37° C. The source says: Serial samples were removed at pre-selected time points up to […]. FK228 and its major metabolites were monitored by ESI LC_MS on the API instrument.

Series [3] concerns the target T2, Pgp (Homo sapiens, UniProt P08183). The note with it: multiple cellular models.
Series [4] is described as follows: Tissue distribution and dose recovery (mass balance) of FK228 in the rat. The class given is in vivo. Particulars: for dose excreted: male, Sprague-Dawley, intravenous. How it is done: (§1) Pharmacokinetics and tissue distribution studies in the rat Twenty-three male S.D. rates weighing 250-300 g were divided into 5 groups. All rats were cannulated by the left jugular vein under ketamine anesthesia (im, 100 mg/kg) for drug administration and/or blood sampling. The rats were kept in metabolism cages and allowed to recover overnight with food and water given ad libitum. The animal protocols were approved by the Institutional Laboratory Animal Care and Use Committee (ILACUC) of the Ohio State University Laboratory Animal Resources (ULAR), and adhered to the guideline and “Principles of Laboratory Animal Care” by National Institutes of Health (NIH).
(§2) At the time schedule of predose, 5, 10, 20, […], 60, 120, 180, 300 minutes after doing, blood samples of 0.2 mL each were withdrawn from the same cannula with an equal volume of normal saline. Plasma was separated immediately by centrifugation (10,000 g×0.5 min.) extracted with 10-volume ethyl acetate. After centrifugation, the organic layer was transferred into a clean conical Falcon polypropylene tube, and evaporated under a stream of nitrogen. […] Weighed wet organ tissue samples were homogenized in appropriate volumes of blank human plasma with an Ultra-Turrax SDT1610 electric homogenizer (Tekmar, Cincinnati, Ohio) at the highest speed setting for 10 seconds 4 times. […] The homogenates were then extracted and determined as in plasma samples (Chan, et al. 1997; Li and Chan, 2000). Feces samples were homogenized similarly as above. After centrifugation, the supernatant was extracted and determined as plasma samples.
(§3) A 2 mm×50 mm Keystone BetaBasic-C8 column (Keystone, Bellefonte, Pa.) and an isocratic elution were used with the mobile phase consisting of 70% acetonitrile and 0.1% acetic acid at a flow rate of 0.2 mL/min. The flow leaving the HPLC column was split in a ratio of 20:1, with only 10 μL/min. entering the mass spectrometer. All samples were determined by individual calibration curves using specific blank sample matrix. […] While the recoveries from rat muscle and fat samples were further normalized to whole body weight assuming the muscle and fat compose 40 and 4% of the rat total body weight, respectively (Davies and Morris, 1993).

Series [5] can be described thus: FK228 stability and protein binding in human plasma. It counts as in vitro ADME.
The conditions of series [6]: i.v. bolus, for 250 g rats; cited from earlier work.
Series [7] is described as follows: Rat pharmacokinetics of FK228. The class given is in vivo. Particulars: for AUC(0-inf) / Cmax / MRT / clearance / Vd: male, Sprague-Dawley, plasma, iv; for clearance: read-out: Cltotal; for Vd: read-out: Vdss. As to the method: as §1, §2, §3
For series [8] the following is noted: patients, 4-hour infusion; cited from earlier work.
Series [9] deals with multidrug resistant-associated protein 1 (MRP1) (Homo sapiens, UniProt P33527). Particulars: multiple cellular models.
Series [10] addresses T2, Pgp. Particulars: earlier finding; cited from earlier work.
Series [11] is described as follows: In vitro rat blood distribution / RBC uptake of FK228.
The subject of the next series is RBC GSH. As to the kind of experiment: RBC GSH depletion by DEM pretreatment in the rat. The class given is in vivo.
[12] abbreviates: after 1 hour whole blood incubation at 37° C.
[13] abbreviates: 2 mg/kg, I.v. bolus (n = 6), 2 mg/kg.
The mark [14] stands for this setting: I.v. bolus with CsA pretreatment (n = 3).
The mark [15] stands for this setting: I.v. bolus with DEM pretreatment (n = 5).
The mark [16] stands for this setting: rat plasma containing 10 mM GSH.

T2 sequence (P08183 whole entry): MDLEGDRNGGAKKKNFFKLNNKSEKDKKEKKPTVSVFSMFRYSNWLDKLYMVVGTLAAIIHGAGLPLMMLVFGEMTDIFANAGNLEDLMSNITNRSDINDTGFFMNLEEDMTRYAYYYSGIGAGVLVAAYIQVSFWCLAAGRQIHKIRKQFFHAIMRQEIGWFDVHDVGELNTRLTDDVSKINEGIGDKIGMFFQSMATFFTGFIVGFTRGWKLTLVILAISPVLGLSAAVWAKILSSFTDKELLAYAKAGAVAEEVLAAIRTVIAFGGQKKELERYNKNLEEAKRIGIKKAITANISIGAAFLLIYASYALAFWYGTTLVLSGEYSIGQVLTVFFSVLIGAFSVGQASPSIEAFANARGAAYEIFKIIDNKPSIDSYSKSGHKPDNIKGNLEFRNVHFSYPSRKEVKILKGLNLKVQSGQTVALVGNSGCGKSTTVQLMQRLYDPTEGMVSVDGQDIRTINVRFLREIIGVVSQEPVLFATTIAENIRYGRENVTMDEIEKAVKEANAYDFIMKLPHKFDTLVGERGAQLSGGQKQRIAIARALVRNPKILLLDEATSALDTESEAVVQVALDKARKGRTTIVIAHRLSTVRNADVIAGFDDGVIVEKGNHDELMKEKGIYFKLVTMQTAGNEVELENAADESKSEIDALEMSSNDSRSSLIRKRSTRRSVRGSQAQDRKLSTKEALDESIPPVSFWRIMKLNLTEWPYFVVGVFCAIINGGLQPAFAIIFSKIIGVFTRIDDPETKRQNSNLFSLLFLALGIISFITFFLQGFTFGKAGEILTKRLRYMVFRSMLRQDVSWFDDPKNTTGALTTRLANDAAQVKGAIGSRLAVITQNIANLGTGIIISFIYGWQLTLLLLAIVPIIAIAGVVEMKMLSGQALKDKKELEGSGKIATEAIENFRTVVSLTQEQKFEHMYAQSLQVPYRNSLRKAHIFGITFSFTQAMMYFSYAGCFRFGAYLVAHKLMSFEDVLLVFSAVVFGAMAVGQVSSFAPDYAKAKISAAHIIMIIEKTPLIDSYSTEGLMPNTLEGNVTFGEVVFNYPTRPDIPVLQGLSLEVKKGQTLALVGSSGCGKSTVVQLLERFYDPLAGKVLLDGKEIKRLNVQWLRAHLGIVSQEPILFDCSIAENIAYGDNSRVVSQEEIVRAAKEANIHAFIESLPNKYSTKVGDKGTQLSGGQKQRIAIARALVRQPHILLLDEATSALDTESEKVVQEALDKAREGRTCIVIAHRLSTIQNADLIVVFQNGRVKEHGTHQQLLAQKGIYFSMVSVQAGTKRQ
multidrug resistant-associated protein 1 (MRP1), sequence (P33527 whole entry): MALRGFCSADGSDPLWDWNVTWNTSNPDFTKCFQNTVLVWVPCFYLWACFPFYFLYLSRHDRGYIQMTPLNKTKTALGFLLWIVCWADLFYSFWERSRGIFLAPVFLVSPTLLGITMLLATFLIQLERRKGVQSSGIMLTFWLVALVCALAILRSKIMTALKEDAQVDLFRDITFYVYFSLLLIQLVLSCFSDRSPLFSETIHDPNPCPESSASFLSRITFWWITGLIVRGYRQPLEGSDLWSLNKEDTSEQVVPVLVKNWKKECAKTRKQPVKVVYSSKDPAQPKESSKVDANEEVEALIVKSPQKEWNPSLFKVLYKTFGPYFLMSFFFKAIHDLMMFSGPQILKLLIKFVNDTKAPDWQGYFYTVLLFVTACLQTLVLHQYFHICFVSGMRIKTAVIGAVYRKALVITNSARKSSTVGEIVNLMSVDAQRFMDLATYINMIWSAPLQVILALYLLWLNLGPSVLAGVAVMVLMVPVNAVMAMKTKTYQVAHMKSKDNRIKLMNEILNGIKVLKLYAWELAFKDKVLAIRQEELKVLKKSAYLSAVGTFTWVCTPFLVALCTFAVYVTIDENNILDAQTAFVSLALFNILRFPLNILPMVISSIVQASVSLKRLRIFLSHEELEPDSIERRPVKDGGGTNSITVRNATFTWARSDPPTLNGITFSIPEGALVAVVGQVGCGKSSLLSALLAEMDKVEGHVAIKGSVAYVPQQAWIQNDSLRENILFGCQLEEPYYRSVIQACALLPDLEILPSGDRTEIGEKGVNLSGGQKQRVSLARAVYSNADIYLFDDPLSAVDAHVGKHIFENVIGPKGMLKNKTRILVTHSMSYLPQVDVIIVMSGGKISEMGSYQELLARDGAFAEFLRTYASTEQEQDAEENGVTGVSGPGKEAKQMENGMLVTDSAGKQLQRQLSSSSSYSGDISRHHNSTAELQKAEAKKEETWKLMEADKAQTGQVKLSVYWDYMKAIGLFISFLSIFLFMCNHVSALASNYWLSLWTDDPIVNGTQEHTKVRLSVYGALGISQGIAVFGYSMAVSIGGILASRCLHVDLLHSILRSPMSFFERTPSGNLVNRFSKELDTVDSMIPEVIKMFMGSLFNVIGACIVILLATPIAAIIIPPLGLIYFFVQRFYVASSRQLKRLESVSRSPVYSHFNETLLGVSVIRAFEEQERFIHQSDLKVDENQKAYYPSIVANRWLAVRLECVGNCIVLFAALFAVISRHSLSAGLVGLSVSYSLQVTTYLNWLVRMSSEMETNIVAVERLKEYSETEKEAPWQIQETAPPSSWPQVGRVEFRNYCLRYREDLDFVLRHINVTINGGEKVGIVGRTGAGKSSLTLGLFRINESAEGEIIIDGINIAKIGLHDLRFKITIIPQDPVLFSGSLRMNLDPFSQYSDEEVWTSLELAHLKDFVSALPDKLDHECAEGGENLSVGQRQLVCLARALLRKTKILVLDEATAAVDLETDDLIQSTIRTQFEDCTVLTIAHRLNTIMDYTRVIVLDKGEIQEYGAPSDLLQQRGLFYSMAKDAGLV

`CC(C)C1NC(=O)CC(/C=C/CCS)OC(=O)C(C(C)C)NC(=O)C2NC(=O)C(CSC2C)NC1=O` (centres unmarked) [metabolite B]: in the series on HDAC, the IC50 was determined as 0.94 ± 0.14 nM and the “times more potent as HDAC inhibitors than FK228” value is on record as at least 82 times. For the same compound, in series [1], the “detection in RBC cytosol / homogenate” value is given as “detected” and the “detection in plasma fraction” value was “detected”. In [1] (setting [12]), the “fate in rat RBC” value was “remained in rat RBC”. Also, the stability of metabolite entry in [2] (rat plasma containing 10 mM GSH, in words) is given as “instable”. For the same compound, the half-life at 100 μg/mL in series [2] (read-out: terminal half life) is 14.4 min.

Consider `C/C=C1\NC(=O)[C@H]2CSSCC/C=C/[C@H](CC(=O)N[C@H](C(C)C)C(=O)N2)OC(=O)[C@H](C(C)C)NC1=O` [FK228, (E)-(1S,4S,10S,21R)-7-[(Z)-ethylidene]-4,21-diisopropyl-2-oxz-12,13-dithia-5,8,20,23-tetraazabicyclo[8,7,6]-tricos-16ene-3,6,9,19,22-pentanone], for which, at Pgp [3], the Pgp substrate result is given as “substrate”. Moreover, in series [4], the “total amount of FK228 in 24-hour urine and 6-hour bile” value is given as “less than 11 % of the dose”. For the same compound, the “total recovery of intact FK228 from 9 major organ tissues” value in series [4] (6 hours) was 2.5±1.26%; in series [4] (24 hours), 0.56±0.3%. For the same compound, the dose excreted in [4] (bile, n=3, read-out: dose recovery from 6 hour bile) worked out at 4.76 ± 0.34%; in series [4] (urine, 2 mg/kg, n=6, read-out: dose recovery from 24 hour urine), 5.9 ± 1.6%. In addition, the “binding to plasma proteins” value in series [5] is “over 90%”. In addition, the stability entry in series [5] is reported as “stable”. For the same compound, the distribution volume in series [6] was 22.3 ± 7.3 L/kg. Besides, the total body clearance in [6] was 425.3 ± 117.7 mL/min. The “plasma FK228 concentrations” value in series [7] (following i.v. infusion) was under 20 nM. The AUC(0-inf) in series [7] (2 mg/kg, I.v. bolus (n = 6)) is 0.0683 µM·h; in series [7] (setting [14]), 0.0667 µM·h; in [7] (setting [15]), 0.0903 µM·h; in [7] (I.v. infusion (n = 6)), 0.103 µM·h. Also, the Cmax in [7] (2 mg/kg, I.v. bolus (n = 6)) was found to be 490 ± 164 nM; in series [7] (2 mg/kg, I.v. infusion (n = 6)) it was 25.3 ± 3.7 nM; in series [7] (setting [14]), 548 ± 249 nM; in series [7] (I.v. bolus with DEM pretreatment (n = 5), called C0 in text) it was 1180 ± 637 nM. In addition, the MRT was 36.3 min in [7] (2 mg/kg, I.v. bolus (n = 6)); 17.7 min in series [7] (2 mg/kg, I.v. infusion (n = 6)); 27 min in [7] (setting [14]); 30 min in series [7] (setting [15]). Also, the clearance in series [7] (setting [13]) worked out at 237 ± 58 mL/min; in series [7] (setting [14]), 249 ± 18 mL/min; in [7] (setting [15]), 276 ± 152 mL/min; in [7] (I.v. infusion (n = 6)), 179 ± 27.5 mL/min. Besides, the Vd in series [7] (setting [13]) is 32.7 ± 4.51 L/kg; in [7] (2 mg/kg, I.v. infusion (n = 6)) it was 10.8 ± 2.7 L/kg; in [7] (setting [14]), 29 ± 3.2 L/kg; in series [7] (setting [15]) it was 22.4 ± 13 L/kg; in [7] (I.v. infusion (n = 6)), 11.8 ± 2.7 L/kg. The “maximum tolerated dose (MTD)” value in series [8] is reported as 17.8 mg/m^2. Moreover, the MRP1 substrate result in series [9] is given as “substrate”. Also, the P-glycoprotein substrate result on Pgp [10] is reported as “substrate”. The compound also yielded a recovery at 1 h, 10 μg/mL in series [11] (male, Sprague-Dawley, rat, fresh heparinized whole blood) of under 35%. In series [11] (rat blood at 37° C., within 2 minutes, 0.1-10 μg/mL), the “plasma FK228 remaining” value was “over 20%”.

With `CCOC(=O)/C=C\C(=O)OCC` [DEM, diethyl maleate], the “depletion of RBC GSH” value with RBC GSH was 50%.

`CC(C)C1NC(=O)CC(/C=C\CCSSCC(NC(=O)CCC(N)C(=O)O)C(=O)NCC(=O)O)OC(=O)C(C(C)C)NC(=O)C2NC(=O)C(CSC2C)NC1=O` (centres unmarked) [metabolite D]: the 50% inhibitory concentration (IC50) with HDAC stood at 15.9 ± 2.7 nM. In [1], the “detection in RBC cytosol / homogenate” value is on record as “detected” and the “detection in plasma fraction” value was “detected”. In addition, the “fate in rat RBC” value in [1] (setting [12]) is recorded as “remained in rat RBC”. Also, the “time to plateau or maximum concentration” value in series [2] (setting [16]) is 1 h.

Consider `C/C=C1\NC(=O)C(CS)NC(=O)C(C(C)C)NC(=O)CC(/C=C/CCS)OC(=O)C(C(C)C)NC1=O` (centres unmarked) [metabolite A], for which, in the series with HDAC, the 50% inhibitory concentration (IC50) was determined as 1.65 ± 0.24 nM and the “times more potent as HDAC inhibitors than FK228” value is on record as “at least 46 times”. Moreover, in [1], the “fate in rat RBC” value is “pumped out of rat RBC”. For the same compound, the half-life at 100 μg/mL in series [2] was determined as 18.5 min.

As for `CC(C)C1NC(=O)CC2/C=C/CCSSCC(NC1=O)C(=O)NC(C(C)SCC(NC(=O)CCC(N)C(=O)O)C(=O)NCC(=O)O)C(=O)NC(C(C)C)C(=O)O2` (centres unmarked) [metabolite E], in series [1], the “detection in RBC cytosol / homogenate” value was “detected; also recorded: minor peak” and the “detection in plasma fraction” value is on record as “minor peak”. For the same compound, the “time to plateau or maximum concentration” value in series [2] (setting [16]) came out at 2 h.

On to `CC(C)C1NC(=O)CC(/C=C/CCS)OC(=O)C(C(C)C)NC2(O)SCC(NC1=O)C(=O)NC2C(C)SCC(NC(=O)CCC(N)C(=O)O)C(=O)NCC(=O)O` (centres unmarked) [metabolite F], for which the “detection in plasma fraction” value in series [1] is “detected”. The “fate in rat RBC” value in series [1] (setting [12]) is given as “pumped out of rat RBC”.

One may read the IC50 as the concentration needed to halve the response being measured. Broadly, the AUC(0-inf) is total exposure, with the tail of the curve extrapolated. One may read the Cmax as the maximum level reached in the sampled fluid or tissue. The MRT is a mean duration of stay, worked out from the concentration-time curve.
